Test results: paper PMC9820167, “Design and Synthesis of Conformationally Flexible Scaffold as Bitopic Ligands for Potent D3-Selective Antagonists” (International Journal of Molecular Sciences, 2022)
Read-outs that look alike come from different tables or passages of the source.

Tests used:
[1] = target: D2 receptors; conditions: cited from earlier work
[2] = target: T1, human D3 receptors (Homo sapiens, UniProt P35462); assay: β-arrestin recruitment assay (antagonist mode, competition with dopamine); assay type: cell-based; set-up: expressed in transfected cells; conditions: for Emax: percentage of the maximum inhibition of dopamine at EC80 concentration, read-out: Imax (% Control); for IC50: potency for D3 receptors, CHO-K1 cells, vs 30 nM (EC80) dopamine, mean ± SD, three experiments, read-out: IC50
Description: (§1) Two different assays were used to evaluate the properties of the analogs described above. The receptor binding affinity was measured by radioligand binding assays using [^125I]IABN with D2 or D3 receptors highly expressed HEK293 cells. The functional activity of the analogs was determined using a β-arrestin recruitment assay. The assay was initially conducted in agonist binding mode to confirm that they function as antagonists at the D3 receptor. Once this efficacy was confirmed, the assay was conducted in antagonist mode to determine the ability of the antagonist to compete with dopamine at the D3 receptor. The results of the antagonist mode assay are reported as IC50 values.
CHO-K1 cells which were overexpressed human D3 receptors were cultured in assaycomplete^TM cell culture kit 107. Cells were seeded at a density of 25,000 cells per well of 96-well plate, and incubated at 5% CO2, 37 °C. Two days later, test compounds were dissolved in DMSO, and diluted with 11-point series in phosphate-buffered saline (PBS). Prepared compounds were added to the cells, and it was incubated for 30 min at 5% CO2, 37 °C. Then, cells were treated with 30 nM (EC80) of dopamine, and the plate was incubated another 90 min. PathHunter^TM detection reagent was added to each well, and then plate was incubated for 80 min at RT in the dark. The chemiluminescent signal was measured by PerkinElmer Enspire plate reader (PerkinElmer, Boston, MA). Data were analyzed by Prism followed by non-linear regression.

[3] = target: T1, human D3 receptors; assay: Radioligand binding assay with [125I]IABN, D3 receptor; set-up: expressed in transfected cells; host or cells: HEK293; conditions: for Ki: [125I]IABN, D3 receptors expressed in HEK cells, mean ± SEM, three experiments, HCl salts, read-out: Ki ± SEM (nM) D3; for D2/D3: selectivity ratio of Ki D2 / Ki D3 (fold)
Description: as §1
(§2) Ki values for D2 and D3 receptors were measured using [^125I]IABN in human D2 and D3 receptors expressed in HEK cells, respectively. A filtration binding assay was used to characterize membrane-associated receptor binding properties. The details for the procedures were described in the literature.

[4] = target: T2, human D2 receptors (Homo sapiens, UniProt P14416); assay: Radioligand binding assay with [125I]IABN, D2 receptor; conditions: [125I]IABN, D2 receptors expressed in HEK cells; mean ± SEM, three experiments; HCl salts; read-out: Ki ± SEM (nM) D2
T2 construct: expressed in transfected cells; host or cells: HEK293
Description: Two different assays were used to evaluate the properties of the analogs described above. The receptor binding affinity was measured by radioligand binding assays using [^125I]IABN with D2 or D3 receptors highly expressed HEK293 cells. The functional activity of the analogs was determined using a β-arrestin recruitment assay. […] The results of the antagonist mode assay are reported as IC50 values.
as §2

T2 sequence (P14416 whole entry): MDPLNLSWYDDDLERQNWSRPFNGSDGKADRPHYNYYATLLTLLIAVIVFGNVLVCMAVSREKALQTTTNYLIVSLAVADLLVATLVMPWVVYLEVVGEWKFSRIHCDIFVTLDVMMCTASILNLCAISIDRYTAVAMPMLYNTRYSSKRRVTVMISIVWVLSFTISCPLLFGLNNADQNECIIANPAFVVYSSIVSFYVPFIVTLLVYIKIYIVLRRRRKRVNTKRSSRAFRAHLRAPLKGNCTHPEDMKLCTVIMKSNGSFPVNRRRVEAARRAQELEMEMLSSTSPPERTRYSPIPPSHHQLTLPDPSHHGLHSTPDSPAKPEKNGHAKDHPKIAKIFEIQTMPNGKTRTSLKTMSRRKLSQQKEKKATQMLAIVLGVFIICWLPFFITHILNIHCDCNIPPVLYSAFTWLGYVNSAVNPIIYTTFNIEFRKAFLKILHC
T1 sequence (P35462 whole entry): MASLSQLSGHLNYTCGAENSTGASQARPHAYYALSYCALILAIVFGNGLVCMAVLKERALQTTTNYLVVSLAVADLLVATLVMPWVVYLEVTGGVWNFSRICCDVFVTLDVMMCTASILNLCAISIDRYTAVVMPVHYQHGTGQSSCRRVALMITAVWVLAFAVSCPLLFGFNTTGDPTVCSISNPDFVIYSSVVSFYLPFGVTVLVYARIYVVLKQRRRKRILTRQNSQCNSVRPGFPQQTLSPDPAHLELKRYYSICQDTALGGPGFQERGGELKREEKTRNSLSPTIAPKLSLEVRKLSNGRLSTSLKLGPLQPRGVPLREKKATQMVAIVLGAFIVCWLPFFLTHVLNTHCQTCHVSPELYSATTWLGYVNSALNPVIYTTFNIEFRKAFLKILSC

| Emax [2] [%] | IC50 [2] [nM] | Ki [3] [nM] | D2/D3 [3] | Ki [4] [nM] | SMILES | Ki ([1]; read-out: Ki D2) [nM] | Ki ([1]; read-out: Ki for D2/D3 receptors (D2)) [nM] |
| --- | --- | --- | --- | --- | --- | --- | --- |
|  |  |  |  |  | C=CCN1CCC[C@H]1CNC(=O)c1cc(CCCF)cc(OC)c1OC [fallypride] | 0.02 |  |
| 75.2 ± 4.8 | 19.6 ± 23.7 | 13.2 ± 0.5 | 39.8 |  | CCN(CCCNC(=O)c1ccnc2ccccc12)CCNC(=O)c1cc(Br)cc(OC)c1OC [21b, N-(3-((2-(5-Bromo-2,3-dimethoxybenzamido)ethyl)(ethyl)amino)propyl)quinoline-4-carboxamide] |  |  |
| 98 ± 5.6 | > 1000 | 1630 ± 165 | 3.3 | 5420 ± 1040 | CCN(CCCCN(C)C)CCNC(=O)c1cc(Br)cc(OC)c1OC [6c, 5-Bromo-N-(2-((4-(dimethylamino)butyl)(ethyl)amino)ethyl)-2,3-dimethoxybenzamide] |  |  |
|  |  | 21.8 ± 5.1 |  | 89.2 ± 5.6 | CCN(C)CCNC(=O)c1cc(Br)cc(OC)c1OC [compound 12, 5-Bromo-N-(2-(ethyl(methyl)amino)ethyl)-2,3-dimethoxybenzamide] |  |  |
|  |  | 299 ± 101 | 1.9 | 574 ± 170 | COc1cc(Br)cc(C(=O)NCCN(CCCNC(=O)c2ccc(-c3cccs3)cc2)Cc2ccc(F)cc2)c1OC [20c, 5-Bromo-N-(2-((4-fluorobenzyl)(3-(4-(thiophen-2-yl)benzamido)propyl)amino)ethyl)-2,3-dimethoxybenzamide] |  |  |
|  |  | 125 ± 2 | 2.7 | 342 ± 23 | CCN(CCCCSc1nnc(-c2ccccc2)n1C)CCNC(=O)c1cc(Br)cc(OC)c1OC [11a, 5-Bromo-N-(2-(ethyl(4-((4-methyl-5-phenyl-4H-1,2,4-triazol-3-yl)thio)butyl)amino)ethyl)-2,3-dimethoxybenzamide] |  |  |
| 94 ± 6.4 | 152 ± 185 | 141 ± 26 | 3.2 | 449 ± 90 | CCN(CCCCCN(C)C)CCNC(=O)c1cc(Br)cc(OC)c1OC [6d, 5-Bromo-N-(2-((5-(dimethylamino)pentyl)(ethyl)amino)ethyl)-2,3-dimethoxybenzamide] |  |  |
| 92.7 ± 5.4 | > 1000 | 1760 ± 942 | 2.6 | 4560 ± 2450 | CCN(CCCCN(C)C)CCNC(=O)c1cc(CCCF)cc(OC)c1OC [6a, N-(2-((4-(Dimethylamino)butyl)(ethyl)amino)ethyl)-5-(3-fluoropropyl)-2,3-dimethoxybenzamide] |  |  |
| 98.4 ± 2.9 | 430 ± 467 | 1240 ± 438 | 2.3 | 2810 ± 571 | CCN(CCCCCN(C)C)CCNC(=O)c1cc(CCCF)cc(OC)c1OC [6b, N-(2-((5-(Dimethylamino)pentyl)(ethyl)amino)ethyl)-5-(3-fluoropropyl)-2,3-dimethoxybenzamide] |  |  |
|  |  | > 1000 |  | > 1000 | CCN(C)CCCNC(=O)c1ccc(-c2cccs2)cc1 [compound 14, N-(3-(Ethyl(methyl)amino)propyl)-4-(thiophen-2-yl)benzamide] |  |  |
| 85.7 ± 13.1 | 2.7 ± 0.6 | 6.1 ± 0.6 | 53.7 | 327 ± 32 | CCN(CCCNC(=O)c1ccncc1)CCNC(=O)c1cc(Br)cc(OC)c1OC [21f, N-(3-((2-(5-Bromo-2,3-dimethoxybenzamido)ethyl)(ethyl)amino)propyl)isonicotinamide] |  |  |
|  |  | 22.2 ± 1.8 | 4.6 | 89.7 ± 3.6 | CCN(CCCCCSc1nnc(-c2ccccc2)n1C)CCNC(=O)c1cc(Br)cc(OC)c1OC [11b, 5-Bromo-N-(2-(ethyl(5-((4-methyl-5-phenyl-4H-1,2,4-triazol-3-yl)thio)pentyl)amino)ethyl)-2,3-dimethoxybenzamide] |  |  |
| 101 ± 7.9 | 51.6 ± 40.8 | 5.8 ± 1 | 46.7 | 243 ± 15 | C=CCN(CCCNC(=O)c1ccc(-c2cccs2)cc1)CCNC(=O)c1cc(Br)cc(OC)c1OC [20b, N-(2-(Allyl(3-(4-(thiophen-2-yl)benzamido)propyl)amino)ethyl)-5-bromo-2,3-dimethoxybenzamide] |  |  |
| 73.8 ± 14.9 | 4.1 ± 2.1 | 11.2 ± 1.4 | 22.1 | 248 ± 19 | CCN(CCCNC(=O)c1cccc(N(C)C)c1)CCNC(=O)c1cc(Br)cc(OC)c1OC [21h, 5-Bromo-N-(2-((3-(3-(dimethylamino)benzamido)propyl)(ethyl)amino)ethyl)-2,3-dimethoxybenzamide] |  |  |
|  |  |  |  |  | CCN1CCC[C@H]1CNC(=O)c1cc(Br)cc(OC)c1OC [[^11C]FLB457, FLB457] |  | 0.02 |
| 70.8 ± 7.3 | 104 ± 136 | 8 ± 0.8 | 12.9 | 103 ± 14 | CCN(CCCCNC(=O)c1ccc(-c2cccs2)cc1)CCNC(=O)c1cc(Br)cc(OC)c1OC [9b, 5-Bromo-N-(2-(ethyl(4-(4-(thiophen-2-yl)benzamido)butyl)amino)ethyl)-2,3-dimethoxybenzamide] |  |  |
